Literature values in article PMC12308805, “Ultrahigh-Throughput Virtual Screening Strategies against PPI Targets: A Case Study of STAT Inhibitors” (Journal of Chemical Information and Modeling, 2025).

System: STAT3
Details: sheet 6QHD_actives_decoys; retrospective screening set for STAT3 SH2 domain (PDB 6QHD); […]; ref DUD-E; cited from earlier work

| Compound | Type |
| --- | --- |
| Cc1ccc(N2C(=O)NC(=O)/C(=C\c3cc(C)n(-c4cc(C(=O)O)cc(C(=O)O)c4)c3C)C2=O)cc1 [Decoy670] | Inactive (Decoy) |
| Cc1cc(C(=O)Nc2ccc(S(=O)(=O)Nc3ncccn3)cc2)cc(S(=O)(=O)N(C)C)c1C [Decoy675] | Inactive (Decoy) |
| O=c1c(C[C@H](O)CN2CCOCC2)c(O)n(C[C@@H](O)CN2CCOCC2)c(=O)n1C[C@H](O)CN1CCOCC1 [Decoy679] | Inactive (Decoy) |
| O=c1c(C[C@H](O)CN2CCOCC2)c(O)n(C[C@H](O)CN2CCOCC2)c(=O)n1C[C@H](O)CN1CCOCC1 [Decoy680] | Inactive (Decoy) |
| CSc1cccc(NC(=O)C[C@@H]2SC(N[C@H](c3cccs3)c3c(O)[nH]c(=O)[nH]c3=O)=NC2=O)c1 [Decoy681] | Inactive (Decoy) |
| C=C(CO[C@H]1O[C@@H](CO[C@H]2OC[C@@H](O)[C@@H](O)[C@H]2O)[C@@H](O)[C@@H](O)[C@H]1O)[C@H]1Cc2c(ccc3c2O[C@@H]2COc4cc(OC)c(OC)cc4[C@H]2C3=O)O1 [Decoy686] | Inactive (Decoy) |
| COc1ccc(CCN2C(=O)NC(O)=C3C2=NC(=O)[C@@]3(NS(=O)(=O)c2nnc(NC(C)=O)s2)C(F)(F)F)cc1OC [Decoy687] | Inactive (Decoy) |
| O=C(CCCN1CCC(O[C@@H]2O[C@H](C(=O)O)[C@@H](O)[C@H](O)[C@H]2O)(c2ccc(Cl)cc2)CC1)c1ccc(F)cc1 [Decoy692] | Inactive (Decoy) |
| COc1ccccc1NS(=O)(=O)c1cccc(C(=O)NNC(=O)c2cc3ccccc3[nH]c2=O)c1 [Decoy693] | Inactive (Decoy) |
| COc1cc([C@H]2C(C#N)=C(N)Oc3[nH]nc(-c4cc(OC)c(OC)c(OC)c4)c32)ccc1OC(=O)N1CCOCC1 [Decoy695] | Inactive (Decoy) |
| CC(=O)Nc1ccc(S(=O)(=O)N[C@@]2(C(F)(F)F)C(=O)N=C3C2=C(O)N=C(S)N3Cc2ccco2)cc1 [Decoy697] | Inactive (Decoy) |
| COc1ccc(NS(=O)(=O)c2cccc(NS(=O)(=O)c3cccc([N+](=O)[O-])c3)c2)cc1 [Decoy709] | Inactive (Decoy) |
| COc1cc(-n2c(O)c([C@H]3OC(=O)c4c3ccc(OC)c4OC)c(O)nc2=S)cc(OC)c1OC [Decoy716] | Inactive (Decoy) |

Same assay, conditions: sheet 6QHD_actives_decoys; retrospective screening set for STAT3 SH2 domain (PDB 6QHD); decoys generated with DUD-E and presumed inactive, not tested; ref DUD-E; cited from earlier work

| Compound | Type |
| --- | --- |
| COC(=O)c1ccc(S(=O)(=O)N(CCCO)Cc2cc3cc4c(cc3[nH]c2=O)OCCO4)cc1 [Decoy669] | Inactive (Decoy) |
| CCOC(=O)c1c(NC(=O)c2ccc([N+](=O)[O-])cc2)sc2c(OCCN(CC)CC)c(Br)ccc12 [Decoy671] | Inactive (Decoy) |
| Nc1cnn([C@@H]2O[C@@H](COC(=O)c3ccccc3)[C@H](OC(=O)c3ccccc3)[C@@H]2OC(=O)c2ccccc2)c(=O)n1 [Decoy672] | Inactive (Decoy) |
| CCOC(=O)C(Sc1nc(N)c(NC(=O)c2ccc(Br)o2)c(=O)[nH]1)C(=O)OCC [Decoy673] | Inactive (Decoy) |
| COc1cc([C@H]2C(C(=O)c3nc4c(C)cccn4c3C)=C(O)C(=O)N2CCCN2CCOCC2)ccc1O [Decoy674] | Inactive (Decoy) |
| COc1cc(/C=N/Nc2nc(SCC(=O)Nc3cc(F)ccc3C)n[nH]2)cc(OC)c1OC [Decoy676] | Inactive (Decoy) |
| CCOC(=O)c1ccc(N2C(=O)[C@@H](CC(=O)Nc3ccc(OCC)cc3)N(CCc3ccncc3)C2=S)cc1 [Decoy677] | Inactive (Decoy) |
| COc1ccc(Cl)cc1N/C(N)=N\c1nc(CSc2nnnn2-c2ccccc2)cc(=O)[nH]1 [Decoy678] | Inactive (Decoy) |
| CCCC[C@@]1(c2ccc(F)cc2)NC(=O)N(CC(=O)Nc2ccc(S(=O)(=O)N(CC)CC)cc2)C1=O [Decoy682] | Inactive (Decoy) |
| Cc1ccc(S(=O)(=O)n2cc(/C=N\N=C3/NC(=O)[C@H](CC(=O)O)S3)c3ccccc32)cc1 [Decoy683] | Inactive (Decoy) |
| CCN(CC)S(=O)(=O)c1ccc(NC(=O)CSc2n[nH]c(NN=C3CCCC3)n2)cc1 [Decoy684] | Inactive (Decoy) |
| OC[C@@]1(O)CO[C@H](OC[C@H]2O[C@@H](O[C@H](CCCCc3ccc(O)cc3)CCc3ccc(O)cc3)[C@H](O[C@H]3OC[C@](O)(CO)[C@H]3O)[C@@H](O)[C@@H]2O)[C@@H]1O [Decoy685] | Inactive (Decoy) |
| C=C[C@@](C)(CC/C=C(\C)CC/C=C(\C)C[C@H](O)/C=C(\C)C(=O)O)O[C@@H]1O[C@H](CO)[C@@H](O)[C@H](O)[C@H]1O[C@@H]1O[C@H](CO)[C@@H](O)[C@H](O)[C@H]1O [Decoy688] | Inactive (Decoy) |
| C=C[C@](C)(CC/C=C(\C)CC/C=C(\C)C[C@H](O)/C=C(\C)C(=O)O)O[C@@H]1O[C@H](CO)[C@@H](O)[C@H](O)[C@H]1O[C@@H]1O[C@H](CO)[C@@H](O)[C@H](O)[C@H]1O [Decoy689] | Inactive (Decoy) |
| COc1ccc([N+](=O)[O-])cc1NC(=S)N[C@@H](NC(=O)c1ccco1)C(Cl)(Cl)Cl [Decoy690] | Inactive (Decoy) |
| C=C[C@@](C)(O)CC/C=C(\C)C(=O)O[C@@H]1[C@@H]2O[C@]2(C)[C@H]2[C@H](O[C@@H]3O[C@H](CO)[C@@H](O)[C@H](O)[C@H]3O)OC=C[C@@]12O [Decoy691] | Inactive (Decoy) |
| COc1ccc(/C=N\N=C2/NC(=O)[C@@H](CC(=O)Nc3ccc([N+](=O)[O-])cc3)S2)c(C(=O)O)c1OC [Decoy694] | Inactive (Decoy) |
| Cc1cc(C)n(Cc2ccc(NC(=S)Nc3ccc(S(=O)(=O)Nc4ncccn4)cc3)cc2)n1 [Decoy696] | Inactive (Decoy) |
| CC[C@H](c1nnnn1C[C@H]1CCCO1)N(Cc1ccc(C)cc1)Cc1cc2cc(OC)c(OC)cc2[nH]c1=O [Decoy698] | Inactive (Decoy) |
| C=C[C@H]1[C@H](O[C@H]2O[C@@H](CO)[C@@H](O)[C@@H](O)[C@@H]2O)OC=C(C(=O)OC)[C@H]1CCOC(=O)c1cc(O)c(O)c(O)c1 [Decoy699] | Inactive (Decoy) |
| C=C[C@H]1[C@H](O[C@H]2O[C@@H](CO)[C@@H](O)[C@@H](O)[C@H]2O)OC=C(C(=O)OC)[C@H]1CCOC(=O)c1cc(O)c(O)c(O)c1 [Decoy700] | Inactive (Decoy) |
| O=C[C@H](O)[C@@H](O)[C@H](O)[C@@H](CO)O[P@](=O)(OC[C@H]1O[C@@H](n2ccc(=O)[nH]c2=O)[C@H](O)[C@@H]1O)OP(=O)(O)O [Decoy701] | Inactive (Decoy) |
| Cc1cc(NS(=O)(=O)c2ccc(NC(=O)CCC(=O)Nc3ccc(S(=O)(=O)Nc4cc(C)on4)cc3)cc2)no1 [Decoy702] | Inactive (Decoy) |

| Compound | Type |
| --- | --- |
| CCN(CC)c1ccc(/C=N/NC(=O)CSc2nnc(-c3cc(OC)c(OC)c(OC)c3)n2-c2ccccc2)c(O)c1 [Decoy703] | Inactive (Decoy) |
| CCOC(=O)c1ccc(NC(=O)CSc2ccc3nnc(CCNS(=O)(=O)c4ccc(OC)cc4)n3n2)cc1 [Decoy704] | Inactive (Decoy) |
| CCOC(=O)C1=C(C)NC(=O)N[C@H]1c1cc(OC)c(OCC(=O)Nc2ccc(C)cc2)cc1Br [Decoy705] | Inactive (Decoy) |
| COc1cc(/C=C/C(=O)O[C@H]2[C@H](O)[C@@H](COC(=O)/C=C/c3ccc(O)cc3)O[C@@]2(CO)O[C@H]2O[C@H](CO)[C@@H](O)[C@H](O)[C@H]2O)ccc1O [Decoy706] | Inactive (Decoy) |
| COc1ccccc1OCCNC[C@@H](O)CN(CCOc1ccccc1OC)C[C@H](O)COc1cccc2[nH]c3ccccc3c12 [Decoy707] | Inactive (Decoy) |
| COc1ccccc1OCCNC[C@H](O)CN(CCOc1ccccc1OC)C[C@H](O)COc1cccc2[nH]c3ccccc3c12 [Decoy708] | Inactive (Decoy) |
| CCN(CC)c1ccc(/C=N/NC(=O)CN(c2cc(Cl)ccc2OC)S(=O)(=O)c2ccc(C)c([N+](=O)[O-])c2)cc1 [Decoy710] | Inactive (Decoy) |
| COC(=O)c1[nH]c(C)c(C(=O)C2=C(O)C(=O)N(CCCN3CCOCC3)[C@@H]2c2cc(OC)c(OC)c(OC)c2)c1C [Decoy711] | Inactive (Decoy) |
| COCCN(C(=O)COc1cc(Cl)c(Cl)cc1Cl)c1c(N)n(CC(C)C)c(=O)[nH]c1=O [Decoy712] | Inactive (Decoy) |
| COc1ccc(CCNC(=O)CN(c2ccc(F)cc2)S(=O)(=O)c2ccc(OC)c(OC)c2)cc1OC [Decoy713] | Inactive (Decoy) |
| Cc1cccn2c(=O)c(/C=C3\SC(=S)N(CCCCCC(=O)O)C3=O)c(NCCN3CCOCC3)nc12 [Decoy714] | Inactive (Decoy) |
| COc1cc(C[C@H]2CO[C@H](c3ccc(O)c(OC)c3)[C@@H]2CO[C@H]2O[C@@H](CO)[C@@H](O)[C@@H](O)[C@H]2O)ccc1O [Decoy715] | Inactive (Decoy) |
| COc1cc(O)c(C(C)=O)c(O[C@@H]2O[C@@H](CO[C@H]3O[C@@H](CO)[C@@H](O)[C@@H](O)[C@H]3O)[C@@H](O)[C@@H](O)[C@H]2O)c1 [Decoy717] | Inactive (Decoy) |
| Nn1c(SCC(=O)N/N=C/c2ccccc2OCc2ccccc2Cl)nnc1-c1ccncc1 [Decoy718] | Inactive (Decoy) |
| COC1=C(S[C@@H]2O[C@H](COC(C)=O)[C@@H](OC(C)=O)[C@H](OC(C)=O)[C@H]2OC(C)=O)C(=O)c2c(O)ccc(O)c2C1=O [Decoy719] | Inactive (Decoy) |
| CC[C@H](C)[C@H](NC(=O)CNC(=O)CCc1c(C)c2cc3c(C)c(C)oc3c(C)c2oc1=O)C(=O)NCCCCCC(=O)O [Decoy720] | Inactive (Decoy) |
| CCOc1ccc(NC(=O)CSC2=C(C#N)[C@H](c3ccco3)C(C(=O)Nc3ccc(OC)cc3)=C(C)N2)cc1 [Decoy721] | Inactive (Decoy) |
| CCOC(=O)c1c(NC(=O)CSc2nnc(CNC(=O)c3ccco3)n2C)sc2c1CCC2 [Decoy722] | Inactive (Decoy) |
| CCCCn1c(N)c(N(CCOC)C(=O)CSc2nc3ccccc3s2)c(=O)[nH]c1=O [Decoy723] | Inactive (Decoy) |
| COc1ccccc1CNC(=O)C[C@@H]1[C@H](O)CC[C@@H]2[C@](C)(CO)[C@H](OC(=O)Nc3cc(OC)c(OC)c(OC)c3)CC[C@]21C [Decoy724] | Inactive (Decoy) |
| COc1ccccc1NS(=O)(=O)c1cccc(C(=O)NNC(=O)CCn2c(C)csc2=O)c1 [Decoy725] | Inactive (Decoy) |
| CCN(CC)S(=O)(=O)c1cccc(-c2nnc(SCC(=O)Nc3cc(C)cc(C)c3)n2N)c1 [Decoy726] | Inactive (Decoy) |
